Measured values taken from publication PMC5795001, “The activity of the C4-dicarboxylic acid chemoreceptor of Pseudomonas aeruginosa is controlled by chemoattractants and antagonists” (Scientific Reports, 2018).
“Also recorded” adds a separate entry of the source.

System: Pseudomonas aeruginosa PAO1 cheA2 mutant
Assay: Capillary chemotaxis assay, cheA2 mutant
Type: cell-based
Details: 10 mM L-malic acid
Description: A recent bioinformatic study has predicted that PA2652 signals through the che pathway. To verify this prediction we conducted chemotaxis assays to L-malic acid using the wt strain as well as mutants in cheA1 and cheA2, encoding respectively the histidine kinases of the che and che2 pathways.
Overnight cultures of P. aeruginosa strains were diluted to an OD660 of 0.05 in MS medium (30 mM Na2HPO4, 20 mM KH2PO4, 25 mM NH4NO3, 1 mM MgSO4) supplemented with 6 mg l^−1 Fe-citrate, trace elements[81] and 15 mM glucose as carbon source, and grown at 37 °C with orbital shaking (200 rpm). At an OD660 of 0.4 ([…]) cultures were centrifuged at 1,700 × g for 5 min and the resulting pellet was washed twice with chemotaxis buffer (50 mM potassium phosphate, […], 0.05% (v/v) glycerol, pH 7.0). Subsequently, the cells were resuspended in the same buffer, adjusted to an OD660 of 0.1 and 230 µl aliquots of the bacterial cultures were placed into 96-well plates. For the quantitative assays, one-microliter capillary tubes (Microcaps, Drummond Scientific, Ref. P1424) were heat-sealed at one end and filled with either the chemotaxis buffer (negative control) or chemotaxis buffer containing the chemoeffectors to test. The capillaries were immersed into the bacterial suspensions at its open end. […] The number of colony forming units was determined after overnight incubation. […]

O=C(O)C[C@H](O)C(=O)O [L-malic acid]
Chemotaxis in cheA2 mutant: almost identical to that of wt strain; also recorded: indistinguishable from that of the wt
